Results as given in article PMC10541502 (Science Advances, 2023).
Ends that are not written are not given here.

Test system: C57BL/6 mice
Details: mouse

Row | Sequence | In vivo toxicity, overall finding
1 | MSPSILKHWSRQGGGKKLLGLLLKLKLK [F6P6] | did not induce primary toxic irritation
2 | MSPSILKHWSRQGGGKLKKLLLGLLLKK [F6P1] | did not induce primary toxic irritation
